Legend:
Adenosine receptor A1 = target: T1, Adenosine receptor A1 (Homo sapiens, UniProt P30542)
T1 sequence (P30542 whole entry): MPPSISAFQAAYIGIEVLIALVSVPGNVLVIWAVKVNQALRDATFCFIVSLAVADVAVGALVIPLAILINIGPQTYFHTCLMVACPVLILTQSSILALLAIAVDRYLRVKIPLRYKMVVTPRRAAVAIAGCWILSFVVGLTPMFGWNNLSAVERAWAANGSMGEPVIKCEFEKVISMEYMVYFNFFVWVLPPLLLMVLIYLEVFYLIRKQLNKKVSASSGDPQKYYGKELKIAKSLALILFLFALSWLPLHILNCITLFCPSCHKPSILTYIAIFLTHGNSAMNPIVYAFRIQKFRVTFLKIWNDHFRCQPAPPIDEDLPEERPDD

[1] = target: T2, Alpha-1A adrenergic receptor (Homo sapiens, UniProt P35348)
T2 sequence (P35348 whole entry): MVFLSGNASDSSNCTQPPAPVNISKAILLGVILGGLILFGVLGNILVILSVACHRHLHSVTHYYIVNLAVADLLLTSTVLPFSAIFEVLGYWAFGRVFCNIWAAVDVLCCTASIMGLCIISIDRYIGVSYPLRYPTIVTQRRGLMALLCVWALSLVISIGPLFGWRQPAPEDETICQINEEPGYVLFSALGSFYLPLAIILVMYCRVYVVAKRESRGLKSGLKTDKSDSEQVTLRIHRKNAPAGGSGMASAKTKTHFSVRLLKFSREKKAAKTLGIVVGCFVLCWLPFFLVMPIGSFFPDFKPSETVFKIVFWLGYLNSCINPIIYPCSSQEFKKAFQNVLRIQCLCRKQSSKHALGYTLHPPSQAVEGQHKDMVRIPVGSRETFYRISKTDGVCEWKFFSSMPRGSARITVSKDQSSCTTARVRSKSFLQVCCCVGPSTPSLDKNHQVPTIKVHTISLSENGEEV

[2] = target: Neuronal acetylcholine receptor subunit alpha-4 (Homo sapiens, UniProt P43681)
Neuronal acetylcholine receptor subunit alpha-4, sequence (P43681 whole entry): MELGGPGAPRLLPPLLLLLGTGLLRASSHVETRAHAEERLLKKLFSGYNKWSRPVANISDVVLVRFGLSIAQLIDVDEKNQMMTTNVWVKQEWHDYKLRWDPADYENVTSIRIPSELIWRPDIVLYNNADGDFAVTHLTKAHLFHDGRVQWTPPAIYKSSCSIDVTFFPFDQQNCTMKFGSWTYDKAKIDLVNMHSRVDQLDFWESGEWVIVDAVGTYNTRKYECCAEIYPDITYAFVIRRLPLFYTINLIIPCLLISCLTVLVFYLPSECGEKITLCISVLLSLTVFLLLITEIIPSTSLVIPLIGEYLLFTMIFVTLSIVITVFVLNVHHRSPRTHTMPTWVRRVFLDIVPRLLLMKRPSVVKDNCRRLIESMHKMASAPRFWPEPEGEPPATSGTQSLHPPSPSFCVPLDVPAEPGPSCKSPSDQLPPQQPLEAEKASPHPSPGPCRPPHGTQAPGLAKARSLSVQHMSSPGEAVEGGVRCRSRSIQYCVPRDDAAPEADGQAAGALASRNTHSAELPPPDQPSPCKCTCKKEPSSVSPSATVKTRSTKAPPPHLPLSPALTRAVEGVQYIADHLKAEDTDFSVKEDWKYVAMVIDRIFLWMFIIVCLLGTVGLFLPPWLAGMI

[3] = target: Glutamate receptor ionotropic, NMDA 1 (Rattus norvegicus, UniProt P35439)
[4] = target: T3, 5-hydroxytryptamine receptor 1A (Homo sapiens, UniProt P08908); assay type: functional, cell-based
T3 sequence (P08908 whole entry): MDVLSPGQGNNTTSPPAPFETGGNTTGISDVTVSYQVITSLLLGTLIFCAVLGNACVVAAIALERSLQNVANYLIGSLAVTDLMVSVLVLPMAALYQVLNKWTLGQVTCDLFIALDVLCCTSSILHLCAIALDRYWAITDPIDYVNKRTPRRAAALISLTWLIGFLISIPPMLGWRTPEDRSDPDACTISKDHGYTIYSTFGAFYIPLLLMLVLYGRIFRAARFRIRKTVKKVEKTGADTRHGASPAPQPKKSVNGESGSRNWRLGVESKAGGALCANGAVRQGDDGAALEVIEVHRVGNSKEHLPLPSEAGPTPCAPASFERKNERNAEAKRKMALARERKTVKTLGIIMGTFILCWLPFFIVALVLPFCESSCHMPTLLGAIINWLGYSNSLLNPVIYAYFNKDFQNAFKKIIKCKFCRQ

[5] = target: T4, 5-hydroxytryptamine receptor 3A (Homo sapiens, UniProt P46098); assay type: functional
T4 sequence (P46098 whole entry): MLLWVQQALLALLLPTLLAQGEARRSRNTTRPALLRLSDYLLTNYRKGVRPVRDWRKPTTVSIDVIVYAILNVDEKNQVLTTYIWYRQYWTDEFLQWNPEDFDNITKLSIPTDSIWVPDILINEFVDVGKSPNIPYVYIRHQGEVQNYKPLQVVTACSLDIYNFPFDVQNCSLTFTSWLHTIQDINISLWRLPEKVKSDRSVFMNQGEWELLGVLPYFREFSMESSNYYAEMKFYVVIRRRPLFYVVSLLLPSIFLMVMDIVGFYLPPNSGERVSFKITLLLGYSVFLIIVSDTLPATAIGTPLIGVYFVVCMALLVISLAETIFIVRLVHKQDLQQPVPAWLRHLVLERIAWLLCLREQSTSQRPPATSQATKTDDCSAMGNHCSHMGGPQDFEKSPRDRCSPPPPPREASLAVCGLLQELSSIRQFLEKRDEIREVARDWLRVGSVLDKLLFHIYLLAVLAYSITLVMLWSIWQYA

[6] = target: Voltage-gated inwardly rectifying potassium channel KCNH2 (Homo sapiens, UniProt Q12809); assay type: functional; settings: read-out: AC50
Voltage-gated inwardly rectifying potassium channel KCNH2, sequence (Q12809 whole entry): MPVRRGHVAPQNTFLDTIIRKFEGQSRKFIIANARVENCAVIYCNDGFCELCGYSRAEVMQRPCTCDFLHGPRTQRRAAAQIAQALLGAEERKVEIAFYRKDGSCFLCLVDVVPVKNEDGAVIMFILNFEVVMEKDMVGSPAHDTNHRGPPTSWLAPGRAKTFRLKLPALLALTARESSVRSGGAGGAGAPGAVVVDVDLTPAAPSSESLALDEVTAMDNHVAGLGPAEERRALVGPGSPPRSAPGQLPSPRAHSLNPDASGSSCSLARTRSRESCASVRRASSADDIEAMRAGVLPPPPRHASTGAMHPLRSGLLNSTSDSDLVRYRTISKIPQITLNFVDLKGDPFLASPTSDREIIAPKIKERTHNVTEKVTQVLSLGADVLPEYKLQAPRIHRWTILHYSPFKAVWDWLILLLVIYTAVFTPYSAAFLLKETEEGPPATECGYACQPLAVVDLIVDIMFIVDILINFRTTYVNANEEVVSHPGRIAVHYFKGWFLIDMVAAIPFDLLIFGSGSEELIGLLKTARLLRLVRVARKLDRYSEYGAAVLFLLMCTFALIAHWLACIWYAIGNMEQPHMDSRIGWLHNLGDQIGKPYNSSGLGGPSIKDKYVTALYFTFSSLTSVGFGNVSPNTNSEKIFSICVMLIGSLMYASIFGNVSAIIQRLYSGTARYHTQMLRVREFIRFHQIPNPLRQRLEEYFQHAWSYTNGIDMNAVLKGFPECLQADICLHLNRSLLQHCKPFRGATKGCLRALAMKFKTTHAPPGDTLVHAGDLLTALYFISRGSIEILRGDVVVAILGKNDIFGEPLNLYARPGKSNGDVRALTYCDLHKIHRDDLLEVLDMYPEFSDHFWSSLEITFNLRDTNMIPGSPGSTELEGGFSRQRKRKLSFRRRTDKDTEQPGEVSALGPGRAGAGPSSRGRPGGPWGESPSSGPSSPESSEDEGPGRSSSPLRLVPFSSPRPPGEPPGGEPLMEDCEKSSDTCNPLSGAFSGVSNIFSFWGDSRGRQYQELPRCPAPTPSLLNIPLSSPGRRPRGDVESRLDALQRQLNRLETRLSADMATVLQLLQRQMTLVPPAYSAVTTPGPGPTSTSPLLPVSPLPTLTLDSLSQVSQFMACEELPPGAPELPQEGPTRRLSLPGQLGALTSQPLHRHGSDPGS

Melanocortin receptor 4 = Melanocortin receptor 4 (Homo sapiens, UniProt P32245)
Melanocortin receptor 4, sequence (P32245 whole entry): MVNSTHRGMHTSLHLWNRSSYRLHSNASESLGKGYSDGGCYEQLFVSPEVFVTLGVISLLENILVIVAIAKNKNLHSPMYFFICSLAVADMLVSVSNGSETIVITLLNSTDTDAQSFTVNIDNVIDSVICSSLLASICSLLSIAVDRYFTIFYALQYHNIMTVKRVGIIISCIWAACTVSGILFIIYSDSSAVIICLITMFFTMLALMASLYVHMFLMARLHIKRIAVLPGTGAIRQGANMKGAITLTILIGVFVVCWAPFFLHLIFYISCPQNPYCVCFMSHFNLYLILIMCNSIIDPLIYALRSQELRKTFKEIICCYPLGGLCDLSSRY

Mu-type opioid receptor [7] = target: T5, Mu-type opioid receptor (Homo sapiens, UniProt P35372)
T5 sequence (P35372 whole entry): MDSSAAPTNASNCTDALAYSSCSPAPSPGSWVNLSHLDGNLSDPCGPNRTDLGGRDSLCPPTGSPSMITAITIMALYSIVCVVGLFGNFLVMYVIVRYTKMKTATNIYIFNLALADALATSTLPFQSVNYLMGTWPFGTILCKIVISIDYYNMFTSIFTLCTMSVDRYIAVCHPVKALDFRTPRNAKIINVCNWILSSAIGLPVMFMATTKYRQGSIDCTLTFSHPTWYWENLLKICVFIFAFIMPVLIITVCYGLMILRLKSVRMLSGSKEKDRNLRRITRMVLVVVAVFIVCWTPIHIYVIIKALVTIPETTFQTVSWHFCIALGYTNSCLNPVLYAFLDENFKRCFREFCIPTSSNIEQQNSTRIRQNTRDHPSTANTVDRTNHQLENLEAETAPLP

Cannabinoid receptor 1 = Cannabinoid receptor 1 (Homo sapiens, UniProt P21554)
Cannabinoid receptor 1, sequence (P21554 whole entry): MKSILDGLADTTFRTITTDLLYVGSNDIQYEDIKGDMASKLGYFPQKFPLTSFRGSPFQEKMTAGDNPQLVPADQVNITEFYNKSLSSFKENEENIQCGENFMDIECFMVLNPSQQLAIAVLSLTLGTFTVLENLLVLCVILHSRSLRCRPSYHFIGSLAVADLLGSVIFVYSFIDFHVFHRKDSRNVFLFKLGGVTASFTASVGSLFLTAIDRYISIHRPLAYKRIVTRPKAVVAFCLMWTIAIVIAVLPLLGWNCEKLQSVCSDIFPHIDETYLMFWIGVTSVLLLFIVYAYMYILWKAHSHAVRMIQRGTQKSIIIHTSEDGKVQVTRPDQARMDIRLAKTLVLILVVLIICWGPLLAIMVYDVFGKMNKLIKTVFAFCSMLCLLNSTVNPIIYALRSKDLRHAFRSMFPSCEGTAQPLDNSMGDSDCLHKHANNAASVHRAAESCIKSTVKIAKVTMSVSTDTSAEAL

Estrogen receptor = target: T6, Estrogen receptor (Homo sapiens, UniProt P03372)
T6 sequence (P03372 whole entry): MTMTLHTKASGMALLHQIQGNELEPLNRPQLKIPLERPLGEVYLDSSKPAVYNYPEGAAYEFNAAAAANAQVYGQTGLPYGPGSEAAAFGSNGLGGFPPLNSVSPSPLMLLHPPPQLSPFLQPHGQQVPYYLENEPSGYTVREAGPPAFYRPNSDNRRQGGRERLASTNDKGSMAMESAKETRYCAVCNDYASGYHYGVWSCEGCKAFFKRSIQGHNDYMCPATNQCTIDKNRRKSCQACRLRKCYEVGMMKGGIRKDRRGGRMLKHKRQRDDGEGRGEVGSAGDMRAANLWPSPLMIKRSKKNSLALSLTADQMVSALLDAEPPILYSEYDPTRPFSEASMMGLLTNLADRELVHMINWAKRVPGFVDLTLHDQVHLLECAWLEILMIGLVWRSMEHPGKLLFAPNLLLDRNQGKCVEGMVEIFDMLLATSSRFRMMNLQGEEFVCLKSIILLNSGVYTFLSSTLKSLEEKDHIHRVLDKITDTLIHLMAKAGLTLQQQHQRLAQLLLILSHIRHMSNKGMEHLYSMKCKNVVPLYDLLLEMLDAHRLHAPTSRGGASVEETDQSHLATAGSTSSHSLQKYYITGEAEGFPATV

Mu-type opioid receptor [8] = target: T5, Mu-type opioid receptor; assay: biochemical; assay type: functional
Also: assay procedure not described here.

CN1CCN(C(=O)OC2c3nccnc3C(=O)N2c2ccc(Cl)cn2)CC1 (stereo unspecified) [ZOPICLONE]
AC50 (Adenosine receptor A1): > 30 µM | AC50 [1]: > 10 µM | AC50 [2]: > 30 µM | AC50 [3]: > 10 µM | AC50 [4]: > 10 µM | AC50 [5]: > 10 µM | AC50 [6]: > 30 µM | AC50 (Melanocortin receptor 4): > 30 µM | AC50 (Mu-type opioid receptor [7]): > 10 µM

CC(C)C(=O)OCC(=O)[C@@]12O[C@H](C3CCCCC3)O[C@@H]1C[C@H]1[C@@H]3CCC4=CC(=O)C=C[C@]4(C)[C@H]3[C@@H](O)C[C@@]12C [CICLESONIDE]
AC50 (Adenosine receptor A1): > 30 µM | AC50 [1]: > 10 µM | AC50 [2]: > 10 µM | AC50 (Cannabinoid receptor 1): 12.1 µM | AC50 (Estrogen receptor): > 30 µM | AC50 [3]: > 10 µM | AC50 [4]: > 10 µM | AC50 [5]: > 30 µM | AC50 [6]: > 30 µM | AC50 (Melanocortin receptor 4): > 10 µM | AC50 (Mu-type opioid receptor [7]): > 30 µM

CCC1(C2=CCCCCC2)C(=O)NC(=O)NC1=O [HEPTABARBITAL]
AC50 (Adenosine receptor A1): > 10 µM | AC50 [1]: > 10 µM | AC50 [2]: > 10 µM | AC50 (Cannabinoid receptor 1): > 10 µM | AC50 (Estrogen receptor): > 10 µM | AC50 [3]: > 10 µM | AC50 [4]: > 10 µM | AC50 [5]: > 30 µM | AC50 [6]: > 30 µM | AC50 (Melanocortin receptor 4): > 10 µM | AC50 (Mu-type opioid receptor [7]): > 30 µM

COc1ccccc1OCC(O)COC(N)=O (stereo unspecified) [METHOCARBAMOL]
AC50 (Adenosine receptor A1): > 10 µM | AC50 [1]: > 10 µM | AC50 [2]: > 10 µM | AC50 (Cannabinoid receptor 1): > 10 µM | AC50 (Estrogen receptor): > 30 µM | AC50 [3]: > 10 µM | AC50 [4]: > 10 µM | AC50 [5]: > 30 µM | AC50 [6]: > 30 µM | AC50 (Melanocortin receptor 4): > 10 µM | AC50 (Mu-type opioid receptor [7]): > 30 µM

C#CC1(OC(N)=O)CCCCC1 [ETHINAMATE]
AC50 (Adenosine receptor A1): > 10 µM | AC50 [1]: > 10 µM | AC50 [2]: > 10 µM | AC50 (Cannabinoid receptor 1): > 10 µM | AC50 (Estrogen receptor): > 10 µM | AC50 [3]: > 10 µM | AC50 [4]: > 10 µM | AC50 [5]: > 30 µM | AC50 [6]: > 30 µM | AC50 (Melanocortin receptor 4): > 10 µM | AC50 (Mu-type opioid receptor [7]): > 30 µM

CCCCOc1cc(C(=O)NCCN(CC)CC)c2ccccc2n1 [DIBUCAINE]
AC50 (Adenosine receptor A1): > 30 µM | AC50 [1]: > 10 µM | AC50 [2]: > 30 µM | AC50 (Cannabinoid receptor 1): > 10 µM | AC50 [3]: > 10 µM | AC50 [4]: > 10 µM | AC50 [5]: > 30 µM | AC50 [6]: 1.42 µM | AC50 (Melanocortin receptor 4): > 30 µM | AC50 (Mu-type opioid receptor [7]): > 30 µM

C#CCN[C@@H]1CCc2ccccc21 [RASAGILINE]
AC50 (Adenosine receptor A1): > 30 µM | AC50 [1]: 20 µM | AC50 [2]: > 30 µM | AC50 (Cannabinoid receptor 1): > 30 µM | AC50 (Estrogen receptor): > 30 µM | AC50 [3]: > 30 µM | AC50 [4]: > 30 µM | AC50 [5]: > 30 µM | AC50 [6]: > 30 µM | AC50 (Melanocortin receptor 4): > 30 µM | AC50 (Mu-type opioid receptor [8]): > 30 µM

C#CCN(C)[C@H](C)Cc1ccccc1 [SELEGILINE]
AC50 (Adenosine receptor A1): > 10 µM | AC50 [1]: 12.7 µM | AC50 [2]: > 10 µM | AC50 (Cannabinoid receptor 1): > 10 µM | AC50 (Estrogen receptor): > 10 µM | AC50 [3]: > 10 µM | AC50 [4]: > 10 µM | AC50 [5]: > 30 µM | AC50 [6]: > 30 µM | AC50 (Melanocortin receptor 4): > 10 µM | AC50 (Mu-type opioid receptor [7]): > 30 µM

CC(=O)O[C@@]12CO[C@@H]1C[C@H](O)[C@@]1(C)C(=O)[C@H](O)C3=C(C)[C@@H](OC(=O)[C@H](O)[C@@H](NC(=O)OC(C)(C)C)c4ccccc4)C[C@@](O)([C@@H](OC(=O)c4ccccc4)[C@H]21)C3(C)C [DOCETAXEL ANHYDROUS]
AC50 (Adenosine receptor A1): > 30 µM | AC50 [1]: > 30 µM | AC50 [2]: > 30 µM | AC50 (Cannabinoid receptor 1): > 30 µM | AC50 (Estrogen receptor): > 30 µM | AC50 [3]: > 30 µM | AC50 [4]: > 30 µM | AC50 [5]: > 30 µM | AC50 [6]: > 30 µM | AC50 (Melanocortin receptor 4): > 30 µM | AC50 (Mu-type opioid receptor [8]): > 30 µM

C1COC(NC(C2CC2)C2CC2)=N1 [RILMENIDINE]
AC50 (Adenosine receptor A1): > 30 µM | AC50 [1]: 4.39 µM | AC50 [2]: > 10 µM | AC50 (Estrogen receptor): > 30 µM | AC50 [3]: > 10 µM | AC50 [4]: > 30 µM | AC50 [5]: > 30 µM | AC50 [6]: > 30 µM | AC50 (Melanocortin receptor 4): > 30 µM | AC50 (Mu-type opioid receptor [7]): > 30 µM

CN1C(=O)CC(c2ccccc2)C1=O (stereo unspecified) [PHENSUXIMIDE]
AC50 (Adenosine receptor A1): > 10 µM | AC50 [1]: > 10 µM | AC50 [2]: > 10 µM | AC50 (Cannabinoid receptor 1): > 10 µM | AC50 [3]: > 10 µM | AC50 [4]: > 10 µM | AC50 [5]: > 30 µM | AC50 [6]: > 30 µM | AC50 (Melanocortin receptor 4): > 10 µM | AC50 (Mu-type opioid receptor [7]): > 30 µM

Reference: ChEMBL document CHEMBL5291721, “A preclinical secondary pharmacology resource illuminates target-adverse drug reaction associations of marketed drugs” (Nat Commun, 2023)
